Values of other authors as cited in patent US11524044B2, “Strengthening and tumor eliminating traditional Chinese medicine composition, its preparation method and application” (The First Afiliated Hospital Of Guangzhou University Of …, priority 2020, dated 2022).

What was measured:
[1] = tested on: human colon cancer, liver cancer, gastric cancer, lung cancer and breast cancer related cells
[2] = tested on: ADP induced platelet aggregation

| SMILES | cytotoxicity [1] | inhibition of ADP induced platelet aggregation [2] |
| --- | --- | --- |
| COc1cc(O)c(-c2c(O)cc(OC)c3c2ccc2cc(O)ccc23)c2c1-c1ccc(O)cc1CC2 [Cirrhopetalanthrin] | moderate cytotoxicity | – |
| N#C[C@H](O[C@@H]1O[C@H](CO[C@@H]2O[C@H](CO)[C@@H](O)[C@H](O)[C@H]2O)[C@@H](O)[C@H](O)[C@H]1O)c1ccccc1 [amygdalin] | – | inhibit ADP induced platelet aggregation in varying degrees |
